The values that follow come from PubChem BioAssay AID328 (DTP/NCI, 2004).

This assay relates to BDF1 mice, P388 leukemia ip, median survival T/C. The assay is described as follows: NCI In Vivo Anticancer Drug Screen. Data for tumor model P388 Leukemia (intraperitoneal) in B6D2F1 (BDF1) mice. Particulars: endpoint: median survival time, higher = longer survival. The method, boiled down: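 Mice carrying the transplantable tumour receive compound or vehicle. Survival is followed in each arm, and the treated measure is divided by the vehicle measure.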

Setting [1] is: dose: 100.0 mg/kg/injection, schedule: Q04DX003 (ip), vehicle: saline sonified.
Setting [2] is: dose: 50.0 mg/kg/injection, schedule: Q01DX009 (ip), vehicle: saline with Tween-80.
Setting [3] is: dose: 75.0 mg/kg/injection, schedule: Q01DX009 (ip), vehicle: saline with Tween-80.
[4] abbreviates: dose: 100.0 mg/kg/injection, schedule: Q01DX009 (ip), vehicle: saline with Tween-80.
Setting [5] is: dose: 100.0 mg/kg/injection, schedule: Q04DX003 (ip), vehicle: saline with Tween-80.
Setting [6] is: dose: 200.0 mg/kg/injection, schedule: Q04DX003 (ip), vehicle: saline with Tween-80.
[7] abbreviates: dose: 200.0 mg/kg/injection, schedule: Q01DX009 (ip), vehicle: saline with Tween-80.

Each structure is given as a SMILES string. Several values for one entry are separate records, joined by “and”; a condition that tells them apart may be missing. Equal values may be shown once. Inconclusive results and toxic doses are left out.

On to `O=C(COc1ccc(Cl)cc1)C1CSc2ccc3ccccc3c21` (stereo not given), for which the T/C runs as follows: under setting [1], 95 % of control; (dose: 200.0 mg/kg/injection, schedule: Q04DX003 (ip), vehicle: saline sonified) 90 % of control; (dose: 400.0 mg/kg/injection, schedule: Q04DX003 (ip), vehicle: saline sonified) 95 % of control.
In the case of `CCOC(=O)CCC[P+](c1ccccc1)(c1ccccc1)c1ccccc1`, the T/C (dose: 5.0 mg/kg/injection, schedule: Q01DX009 (ip), vehicle: saline with Tween-80) is 101 % of control; the T/C (dose: 10.0 mg/kg/injection, schedule: Q01DX009 (ip), vehicle: saline with Tween-80) was 100 % of control; the T/C (dose: 13.2 mg/kg/injection, schedule: Q01DX009 (ip), vehicle: saline with Tween-80) was 118 % of control; the T/C (dose: 20.0 mg/kg/injection, schedule: Q01DX009 (ip), vehicle: saline with Tween-80) was 101 % of control and 122 % of control; the T/C (dose: 30.0 mg/kg/injection, schedule: Q01DX009 (ip), vehicle: saline with Tween-80) is 118 % of control; the T/C under setting [2] is 113 % of control. Moreover, the T/C is 152 % of control under setting [3]; 118 % of control under setting [4]; 110 % of control under setting [5]; 121 % of control (dose: 160.0 mg/kg/injection, schedule: Q01DX009 (ip), vehicle: saline with Tween-80); 115 % of control under setting [6].
On to `COC(=O)C1OC(C)(C)OC1C(=O)OC` (stereo not given), for which the T/C is, setting by setting: (dose: 100.0 mg/kg/injection, schedule: Q04DX002 (ip), vehicle: saline with Tween-80) 90 % of control; (dose: 200.0 mg/kg/injection, schedule: Q04DX002 (ip), vehicle: saline with Tween-80) 97 % of control; (dose: 400.0 mg/kg/injection, schedule: Q04DX002 (ip), vehicle: saline with Tween-80) 90 % of control.
Take `CC(=O)O/N=C(/C)c1ccccc1`: the T/C (dose: 25.0 mg/kg/injection, schedule: Q04DX003 (ip), vehicle: saline sonified) was 100 % of control; the T/C (dose: 50.0 mg/kg/injection, schedule: Q04DX003 (ip), vehicle: saline sonified) was 100 % of control; the T/C under setting [1] was 100 % of control.
For `Nc1nc(SCc2ccccc2)c2ncn(C3CCCC3)c2n1`, the T/C is, setting by setting: under setting [5], 100 % of control; under setting [6], 100 % of control; (dose: 400.0 mg/kg/injection, schedule: Q04DX003 (ip), vehicle: saline with Tween-80) 100 % of control.
As to `O=c1cc(CBr)c2ccccc2[nH]1`, the T/C is 91 % of control (dose: 6.25 mg/kg/injection, schedule: Q04DX003 (ip), vehicle: saline with Tween-80); 104 % of control (dose: 12.5 mg/kg/injection, schedule: Q04DX003 (ip), vehicle: saline with Tween-80); 104 % of control (dose: 25.0 mg/kg/injection, schedule: Q04DX003 (ip), vehicle: saline with Tween-80).
Take `CN=C(NN(C)C)c1ccc(NC(=O)c2ccc(C(=O)Nc3ccc(C(=NC)NN(C)C)cc3)cc2)cc1`: the T/C runs as follows: (dose: 4.0 mg/kg/injection, schedule: Q01DX009 (ip), vehicle: saline with Tween-80) 100 % of control; (dose: 9.0 mg/kg/injection, schedule: Q01DX009 (ip), vehicle: saline with Tween-80) 150 % of control.
As to `COc1cc2cc(c1Cl)N(C)C(=O)CC(OC(=O)C(C)C)C1(C)OC1C(C)C1CC(O)(NC(=O)O1)C(OC)/C=C/C=C(/C)C2OC(C)=O` (stereo not given), the T/C was 162 % of control (dose: 1.6 micrograms/kg/injection, schedule: Q01DX009 (ip), vehicle: saline + alcohol); 150 % of control (dose: 3.1 micrograms/kg/injection, schedule: Q01DX009 (ip), vehicle: saline + alcohol); 166 % of control (dose: 6.2 micrograms/kg/injection, schedule: Q01DX009 (ip), vehicle: saline + alcohol); 179 % of control (dose: 12.5 micrograms/kg/injection, schedule: Q01DX009 (ip), vehicle: saline + alcohol); 170 % of control (dose: 25.0 micrograms/kg/injection, schedule: Q01DX009 (ip), vehicle: saline + alcohol).
As for `CNC1=C2NC(=O)/C(C)=C\C=C\C(C)C(O)C(C)C(O)C(C)C(OC(C)=O)C(C)C(OC)/C=C/OC3(C)Oc4c(C)c(O)c(c(c4C3=O)C1=O)C2=O` (stereo not given), the T/C under setting [2] was 95 % of control, the T/C under setting [4] was 90 % of control and the T/C under setting [7] was 100 % of control.
As to `S=C(c1ccco1)N1CCOCC1`, the T/C by setting is: (dose: 37.5 mg/kg/injection, schedule: Q01DX009 (ip), vehicle: saline with Tween-80) 100 % of control; under setting [3], 104 % of control; (dose: 150.0 mg/kg/injection, schedule: Q01DX009 (ip), vehicle: saline with Tween-80) 118 % of control.
As for `O=C1c2cc([N+](=O)[O-])ccc2-c2cc(Cl)c(Cl)cc21`, the T/C was 86 % of control (dose: 50.0 mg/kg/injection, schedule: Q01DX001 (ip), vehicle: saline sonified); 100 % of control (dose: 100.0 mg/kg/injection, schedule: Q01DX001 (ip), vehicle: saline sonified); 90 % of control (dose: 200.0 mg/kg/injection, schedule: Q01DX001 (ip), vehicle: saline sonified).
For the compound `CC(C)(C)CC(C)(C)c1c(O)cc(O)cc1Cl`, the T/C is, setting by setting: (dose: 12.5 mg/kg/injection, schedule: Q01DX009 (ip), vehicle: gum acacia) 99 % of control; (dose: 25.0 mg/kg/injection, schedule: Q01DX009 (ip), vehicle: gum acacia) 91 % of control; (dose: 50.0 mg/kg/injection, schedule: Q01DX009 (ip), vehicle: gum acacia) 89 % of control.
Consider `CC1(C)O[C@]2(C)CC[C@@H]1[C@@H](O)[C@@H]2N1CCCC1`, for which the T/C is 95 % of control (dose: 50.0 mg/kg/injection, schedule: Q01DX005 (ip), vehicle: saline); 106 % of control (dose: 100.0 mg/kg/injection, schedule: Q01DX005 (ip), vehicle: saline); 106 % of control (dose: 200.0 mg/kg/injection, schedule: Q01DX005 (ip), vehicle: saline).
Take `C=CCN(CC=C)P(=O)(N1CC1C)N1CC1C` (stereo not given): the T/C was 101 % of control (dose: 0.2 mg/kg/injection, schedule: Q01DX009 (ip), vehicle: saline) and 106 % of control (dose: 0.4 mg/kg/injection, schedule: Q01DX009 (ip), vehicle: saline).
For `CN(Cc1cnc2nc(N)nc(N)c2n1)c1c(Cl)cc(C(=O)NC(CCC(=O)O)C(=O)O)cc1Br` (stereo not given), the T/C is 108 % of control (dose: 0.13 mg/kg/injection, schedule: Q04DX003 (ip), vehicle: saline); 116 % of control (dose: 0.19 mg/kg/injection, schedule: Q04DX003 (ip), vehicle: saline); 150 % of control (dose: 1.1 mg/kg/injection, schedule: Q04DX003 (ip), vehicle: saline); 150 % of control (dose: 6.3 mg/kg/injection, schedule: Q04DX003 (ip), vehicle: saline); 213 % of control (dose: 25.0 mg/kg/injection, schedule: Q01DX009 (ip), vehicle: saline); 261 % of control (dose: 50.0 mg/kg/injection, schedule: Q01DX009 (ip), vehicle: saline). Besides, the T/C reads like this: under setting [4], 173 % of control; (dose: 100.0 mg/kg/injection, schedule: Q01DX009 (ip), vehicle: saline) 271 % of control; (dose: 115.0 mg/kg/injection, schedule: Q04DX003 (ip), vehicle: saline) 236 % of control; (dose: 175.0 mg/kg/injection, schedule: Q04DX003 (ip), vehicle: saline) 272 % of control; under setting [7], 182 % of control; (dose: 264.0 mg/kg/injection, schedule: Q04DX003 (ip), vehicle: saline) 254 % of control. The T/C was 272 % of control (dose: 400.0 mg/kg/injection, schedule: Q04DX003 (ip), vehicle: saline) and 90 % of control (dose: 600.0 mg/kg/injection, schedule: Q04DX003 (ip), vehicle: saline).
With `O=[N+]([O-])c1ccc(/C=C/C=C\c2cccc(S(=O)(=O)F)c2)c(Cl)c1`, the T/C is 90 % of control and 104 % of control (dose: 100.0 mg/kg/injection, schedule: Q01DX001 (ip), vehicle: Klucel (hydroxypropylcellulose) (HPC)); 112 % of control (dose: 100.0 mg/kg/injection, schedule: Q01DX009 (ip), vehicle: acetone); 93 % of control and 100 % of control (dose: 200.0 mg/kg/injection, schedule: Q01DX001 (ip), vehicle: Klucel (hydroxypropylcellulose) (HPC)); 108 % of control (dose: 200.0 mg/kg/injection, schedule: Q01DX009 (ip), vehicle: acetone); 100 % of control and 106 % of control (dose: 400.0 mg/kg/injection, schedule: Q01DX001 (ip), vehicle: Klucel (hydroxypropylcellulose) (HPC)); 95 % of control (dose: 400.0 mg/kg/injection, schedule: Q01DX009 (ip), vehicle: acetone).
Consider `N=C(Oc1ccccc1)c1ccccc1`, for which the T/C under setting [2] was 100 % of control, the T/C under setting [4] was 102 % of control and the T/C under setting [7] was 102 % of control.
For the compound `COC(=O)/C=C\SC(=S)C1CCCC1=NC1CCCCC1` (stereo not given), the T/C was 102 % of control under setting [2] and 97 % of control under setting [4].
